In patent publication US5605895A, “Cephalosporin antibiotics and processes for preparation thereof” (Lucky, Ltd., priority 1993, dated 1997):
In brackets after ≈: the same amount, converted by molar mass. Like-named read-outs stand apart in the source and are kept apart here.

What was measured:
[1] = test system: A. calcoaceticus 15473A; test: Minimum inhibitory concentration, agar dilution; format: cell-based; details: Acinetobacter calcoaceticus, Muller-Hinton agar, 10^7 CFU per ml, 37° C., 20 hours
Experimental: (§1) The minimum inhibitory concentration was determined by diluting the test compounds according to 2-fold dilution, suspending them in M uller-Hinton agar medium, inoculating the test strains having 10^7 CFU per 1 ml into the medium and then culturing the medium at 37° C. for 20 hours.

[2] = test system: E. cloacae 1194E; test: Minimum inhibitory concentration, agar dilution; format: cell-based; details: Enterobacter cloacae, 1194E, 20 h, read-out: Minimum Inhibitory Concentration
Experimental: as §1

[3] = test system: E. coli 10536; test: Minimum inhibitory concentration, agar dilution; format: cell-based; details: Escherichia coli; E. coli 10536; Muller-Hinton agar, 10^7 CFU per ml, 37° C., 20 hours; read-out: Minimum Inhibitory Concentration
Experimental: as §1

[4] = test system: E. coli 3190Y; test: Minimum inhibitory concentration, agar dilution; format: cell-based; details: Escherichia coli, read-out: Minimum Inhibitory Concentration
Experimental: as §1

[5] = test system: E. coli TEM1 1193E; test: Minimum inhibitory concentration, agar dilution; format: cell-based; details: Escherichia coli, TEM11193E, 20 h, read-out: Minimum Inhibitory Concentration
Experimental: as §1

[6] = test system: E. coli TEM5 3739E; test: Minimum inhibitory concentration, agar dilution; format: cell-based; details: Escherichia coli, TEM53739E, 20 h, read-out: Minimum Inhibitory Concentration
Experimental: as §1

[7] = test system: E. coli TEM9 2639E; test: Minimum inhibitory concentration, agar dilution; format: cell-based; details: Escherichia coli, TEM92639E, 20 h, read-out: Minimum Inhibitory Concentration
Experimental: as §1

[8] = test system: K. aerogenes 1976E; test: Minimum inhibitory concentration, agar dilution; format: cell-based; details: Klebsiella aerogenes, Muller-Hinton agar, 10^7 CFU per ml, 37° C., 20 hours
Experimental: as §1

[9] = test system: P. aeruginosa 10145; test: Minimum inhibitory concentration, agar dilution; format: cell-based; details: Pseudomonas aeruginosa, Muller-Hinton agar, 10^7 CFU per ml, 37° C., 20 hours
Experimental: as §1

[10] = test system: P. aeruginosa 1912E; test: Minimum inhibitory concentration, agar dilution; format: cell-based; details: Pseudomonas aeruginosa, 20 h, read-out: Minimum Inhibitory Concentration
Experimental: as §1

[11] = test system: P. aeruginosa 6065Y; test: Minimum inhibitory concentration, agar dilution; format: cell-based; details: Pseudomonas aeruginosa, 20 h, read-out: Minimum Inhibitory Concentration
Experimental: as §1

[12] = test system: S. aureus 6538pA; test: Minimum inhibitory concentration, agar dilution; format: cell-based; details: Staphylococcus aureus, Muller-Hinton agar, 10^7 CFU per ml, 37° C., 20 hours
Experimental: as §1

[13] = test system: S. aureus giorigio; test: Minimum inhibitory concentration, agar dilution; format: cell-based; details: Staphylococcus aureus, Muller-Hinton agar, 10^7 CFU per ml, 37° C., 20 hours
Experimental: as §1

[14] = test system: S. faecalis 29212A; test: Minimum inhibitory concentration, agar dilution; format: cell-based; details: Enterococcus faecalis, read-out: Minimum Inhibitory Concentration
Experimental: as §1

[15] = test system: S. marcescens 1826E; test: Minimum inhibitory concentration, agar dilution; format: cell-based; details: Serratia marcescens, Muller-Hinton agar, 10^7 CFU per ml, 37° C., 20 hours
Experimental: as §1

[16] = test system: S. typhimurium 14028A; test: Minimum inhibitory concentration, agar dilution; format: cell-based; details: Salmonella enterica, read-out: Minimum Inhibitory Concentration
Experimental: as §1

[17] = Pharmacokinetic properties in SD rats; format: in vivo; details: rat; SD rats (male), intravenous, 20 mg/kg; blood, biological assay (agar well method)
Experimental: The pharmacokinetic properties of the compound of the present invention were determined using SD rats (.male.) weighing 220 to 340 g. Specifically, the test samples were administered in intravenous route in an amount of 20 mg/kg to 2 to 5 test animals. Blood was taken from femoral vein every hours after the administration and then subjected to a biological assay using agar well method to measure the blood concentration. The results of pharmacokinetic properties calculated from the above blood concentration are described in the following Table 3.

[18] = S. faecalis 29212A, Muller-Hinton agar, 10^7 CFU per ml, 37° C., 20 hours
[19] = S. typhimurium 14028A, Muller-Hinton agar, 10^7 CFU per ml, 37° C., 20 hours
[20] = E. coli 3190Y, Muller-Hinton agar, 10^7 CFU per ml, 37° C., 20 hours

Row | SMILES | MIC [1] | MIC [2] | MIC [3] | MIC ([4]; 3190Y, 20 h) | MIC [5] | MIC [6] | MIC [7] | MIC [8] | MIC [9] | MIC [10] | MIC [11] | MIC [12] | MIC [13] | MIC [14, 18] | MIC [15] | MIC [16, 19] | AUC [17] | half-life [17] | MIC ([14]; 29212A, 20 h) | MIC [4, 20] | further results
1 | Nc1cc[n+](N)c(SCC2=C(C(=O)[O-])N3C(=O)C(NC(=O)C(=NOC(C(=O)O)c4ccc(O)c(O)c4)c4csc(N)n4)C3SC2)n1 (stereo not drawn) [I-4(a), 7-[(Z)-2-(2-aminothiazol-4-yl)-2-(α-carboxy-3,4-dihydroxybenzyloxyimino)acetamide]-3-(1,4-diaminopyrimidinium-2-yl)thiomethyl-3-cephem-4-carboxylate] | 0.25 µg/mL (≈ 0.362 µM) | 1 µg/mL (≈ 1.45 µM) | 0.016 µg/mL (≈ 0.0232 µM) | 0.063 µg/mL (≈ 0.0913 µM) | 0.063 µg/mL (≈ 0.0913 µM) | 0.5 µg/mL (≈ 0.725 µM) | 1 µg/mL (≈ 1.45 µM) | 0.13 µg/mL (≈ 0.188 µM) | 0.25 µg/mL (≈ 0.362 µM) | 0.25 µg/mL (≈ 0.362 µM) | 0.5 µg/mL (≈ 0.725 µM) | 1 µg/mL (≈ 1.45 µM) | 0.5 µg/mL (≈ 0.725 µM) | 64 µg/mL (≈ 92.8 µM) | 0.25 µg/mL (≈ 0.362 µM) | 0.031 µg/mL (≈ 0.0449 µM) | 52900 ng·h/mL | 50 min |  |  | 
2 | C[n+]1ccc(N)nc1SCC1=C(C(=O)[O-])N2C(=O)C(NC(=O)/C(=N\OC(C(=O)O)c3ccc(O)c(O)c3)c3csc(N)n3)[C@H]2SC1 (stereo partly drawn) [I-5(a), 7-[(Z)-2-(2-aminothiazol-4-yl)-2-(α-carboxy-3,4-dihydroxybenzyloxyimino)acetamido]-3-(4-amino-1-methylpyrimidinium-2-yl)thiomethyl-3-cephem-4-carboxylate] | 0.5 µg/mL (≈ 0.726 µM) | 4 µg/mL (≈ 5.81 µM) | 0.031 µg/mL (≈ 0.045 µM) | 0.063 µg/mL (≈ 0.0915 µM) | 0.063 µg/mL (≈ 0.0915 µM) | 0.5 µg/mL (≈ 0.726 µM) | 2 µg/mL (≈ 2.9 µM) | 0.25 µg/mL (≈ 0.363 µM) | 0.5 µg/mL (≈ 0.726 µM) | 0.5 µg/mL (≈ 0.726 µM) | 1 µg/mL (≈ 1.45 µM) | 0.5 µg/mL (≈ 0.726 µM) | 0.25 µg/mL (≈ 0.363 µM) | 64 µg/mL (≈ 92.9 µM) | 0.5 µg/mL (≈ 0.726 µM) | 0.031 µg/mL (≈ 0.045 µM) | 43600 ng·h/mL | 39 min |  |  | 
3 | C[n+]1cc(C(=O)O)c(N)nc1SCC1=C(C(=O)[O-])N2C(=O)C(NC(=O)/C(=N\OC(C(=O)O)c3ccc(O)c(O)c3)c3csc(N)n3)[C@H]2SC1 (stereo partly drawn) [I-6(a), 7-[(Z)-2-(2-aminothiazol-4-yl)-2-(α-carboxy-3,4-dihydroxybenzyloxyimino)acetamido]-3-(4-amino-1-methyl-5-carboxypyrimidinium-2-yl)thiomethyl-3-cephem-4-carboxylate] | 0.5 µg/mL (≈ 0.682 µM) | 4 µg/mL (≈ 5.46 µM) | 0.031 µg/mL (≈ 0.0423 µM) | 0.13 µg/mL (≈ 0.177 µM) | 0.063 µg/mL (≈ 0.086 µM) | 0.25 µg/mL (≈ 0.341 µM) | 4 µg/mL (≈ 5.46 µM) | 0.25 µg/mL (≈ 0.341 µM) | 0.25 µg/mL (≈ 0.341 µM) | 0.25 µg/mL (≈ 0.341 µM) | 0.5 µg/mL (≈ 0.682 µM) | 2 µg/mL (≈ 2.73 µM) | 2 µg/mL (≈ 2.73 µM) |  | 1 µg/mL (≈ 1.36 µM) | 0.031 µg/mL (≈ 0.0423 µM) | 37800 ng·h/mL | 32 min | 32 µg/mL (≈ 43.7 µM) |  | 
4 | Nc1nc(C(=NOC(C(=O)O)c2ccc(O)c(O)c2)C(=O)NC2C(=O)N3C(C(=O)[O-])=C(CSc4nc(N)c5c([n+]4N)CCC5)CSC23)cs1 (stereo not drawn) [I-8(a), 7-[(Z)-2-(2-aminothiazol-4-yl)-2-(α-carboxy-3,4-dihydroxybenzyloxyimino)acetamido]-3-(1,4-diamino-1,5,6,7-tetrahydrocyclopentapyrimidin-2-yl) thiomethyl-3-cephem-4-carboxylate] | 0.25 µg/mL (≈ 0.343 µM) | 2 µg/mL (≈ 2.74 µM) | 0.031 µg/mL (≈ 0.0425 µM) |  | 0.063 µg/mL (≈ 0.0863 µM) | 0.5 µg/mL (≈ 0.685 µM) | 1 µg/mL (≈ 1.37 µM) | 0.13 µg/mL (≈ 0.178 µM) | 0.5 µg/mL (≈ 0.685 µM) | 0.5 µg/mL (≈ 0.685 µM) | 1 µg/mL (≈ 1.37 µM) | 0.5 µg/mL (≈ 0.685 µM) | 0.063 µg/mL (≈ 0.0863 µM) |  | 0.5 µg/mL (≈ 0.685 µM) |  | 64500 ng·h/mL | 53 min | 16 µg/mL (≈ 21.9 µM) | 0.031 µg/mL (≈ 0.0425 µM) | MIC ([16]; TYPHIMURIUM, 20 h): 0.063 µg/mL (≈ 0.0863 µM)
5 | Cn1c(N)n[n+]2c(SCC3=C(C(=O)[O-])N4C(=O)C(NC(=O)C(=NOC(C(=O)O)c5ccc(O)c(O)c5)c5csc(N)n5)[C@H]4SC3)nc(N)cc12 (stereo partly drawn) [I-10(a), 7-[(Z)-2-(2-aminothiazol-4-yl)-2-(α-carboxy-3,4-dihydroxybenzyloxyimino)acetamido]-3-(2,7-diamino-1-methyl[1,2,4]triazolo[1,5-c]pyrimidinium-5-yl)thiomethyl-3-cephem-4-carboxylate] | 0.5 µg/mL (≈ 0.672 µM) | 1 µg/mL (≈ 1.34 µM) | 0.016 µg/mL (≈ 0.0215 µM) |  | 0.063 µg/mL (≈ 0.0847 µM) | 0.25 µg/mL (≈ 0.336 µM) | 1 µg/mL (≈ 1.34 µM) | 0.13 µg/mL (≈ 0.175 µM) | 0.25 µg/mL (≈ 0.336 µM) | 0.5 µg/mL (≈ 0.672 µM) | 0.5 µg/mL (≈ 0.672 µM) | 0.5 µg/mL (≈ 0.672 µM) | 0.25 µg/mL (≈ 0.336 µM) | 8 µg/mL (≈ 10.8 µM) | 0.25 µg/mL (≈ 0.336 µM) |  | 66000 ng·h/mL | 58 min |  | 0.031 µg/mL (≈ 0.0417 µM) | MIC ([16]; TYPHIMURIUM, 20 h): 0.063 µg/mL (≈ 0.0847 µM)
6 | Cn1cc[n+]2c(SCC3=C(C(=O)[O-])N4C(=O)C(NC(=O)C(=NOC(C(=O)O)c5ccc(O)c(O)c5)c5csc(N)n5)C4SC3)nc(N)cc12 (stereo not drawn) [I-11(a), 7-[(Z)-2-(2-aminothiazol-4-yl)-2-(α-carboxy-3,4-dihydroxybenzyloxyimino)acetamido]-3-(7-amino-1-methyl-1H-imidazo[1,2-c]pyrimidinium-5-yl)-thiomethyl-3-cephem-4-carboxylate] | 0.5 µg/mL (≈ 0.687 µM) | 1 µg/mL (≈ 1.37 µM) | ≤ 0.008 µg/mL |  | 0.063 µg/mL (≈ 0.0866 µM) | 0.25 µg/mL (≈ 0.344 µM) | 1 µg/mL (≈ 1.37 µM) | 0.13 µg/mL (≈ 0.179 µM) | 0.25 µg/mL (≈ 0.344 µM) | 0.5 µg/mL (≈ 0.687 µM) | 0.5 µg/mL (≈ 0.687 µM) | 0.5 µg/mL (≈ 0.687 µM) | 0.5 µg/mL (≈ 0.687 µM) | 8 µg/mL (≈ 11 µM) | 0.25 µg/mL (≈ 0.344 µM) | 0.016 µg/mL (≈ 0.022 µM) | 47900 ng·h/mL | 68 min |  | 0.031 µg/mL (≈ 0.0426 µM) | 
